# Results as given in patent US4801588A, “Tetracyclic indole derivatives for treating hypertension” (Farmitalia Carlo Erba S.p.A., priority 1986, dated 1989).
# How the values were obtained:
# male mice = assay: Orientative toxicity after oral treatment in male mice, seven days observation; type: in vivo; conditions: p.o., observed for seven days, 10080 min
# Source text: (§1) Three male mice for each group were orally treated with drugs at different dose levels for the determination of orientative toxicity.
# mean blood pressure = assay: Antihypertensive activity: mean blood pressure (MBP) after oral administration in SHR rats, intraarterial measurement; type: in vivo, rat (SHR); conditions: single dose, limits P = 0.05, calculated from dose-response regression line; for ED25 and limits (dose lowering mean blood pressure of 25 mmHg): p.o.
# Protocol: Intrarterial measurements of mean blood pressure (MBP) were performed through catheters (PE 50, Clay Adams) implanted in the rat (SHR) right carotid artery under alothane anesthesia. Twenty four hours after surgery, the animals were placed in Ballman cages and the arterial cannula was connected via a pressure transducer to a Beckman blood pressure recorder for continuous monitoring of mean blood pressure.
# MBP was recorded before the oral administration (basal values) and 15-30-60-120-240 minutes till 24 hours after treatment. Groups of 7-8 rats were orally treated with a single dose of the test compound or vehicle, methocel 0.5% w/v (0.2 ml/100 g b.w.). The ED25 was calculated for each compound from the dose-response regression line.
# As reference standard drug, captopril was also tested.
# [1] = Orientative toxicity after oral treatment in male mice, seven days observation; type: in vivo; conditions: mouse, in vivo, po, observed for seven days
# Source text: as §1
Compound,LD50 (male mice) [mg/kg],ED25 and limits (dose lowering mean blood pressure of 25 mmHg) (mean blood pressure),LD50 at 168 h [1] [mg/kg],"ED (25 mmHg) (mean blood pressure; Rattus norvegicus, po, read-out: ED25 and limits (dose lowering mean blood pressure of 25 mmHg)) [mg/kg]"
"CN1C[C@H](CN2CC(=O)NC2=O)C2=Cc3cccc4[nH]cc(c34)C[C@H]21 [FCE 24378, 1-[[5(10→9)abeo-9,10-didehydro-6-methylergolin-8β-yl]methyl]-2,4-imidazolidinedione]",> 800,2.051 (1.180-2.971) mg.kg^-1,,
"C[N+]1([O-])C[C@H](CN2CC(=O)NC2=O)C2=Cc3cccc4[nH]cc(c34)C[C@H]21 (stereo partly drawn) [FCE 25068, 1-[[5(10→9)abeo-9,10-didehydro-6-methylergolin-8β-yl]methyl]-2,4-imidazolidinedione-N6-oxide]",> 800,4.272 (3.256-5.514) mg.kg^-1,,
"1-[[5-(10→9)abeo-9,10-didehydro-6-methylergolin-8β-yl]methyl]- 2,4-(1H,3H)-pyrimidinedione [FCE 24379]",> 800,1.229 (0.661-1.845) mg.kg^-1,,
"1-[[5-(10→9)abeo-9,10-didehydro-6-methylergolin-8β-yl]methyl]- 2,4-(1H,3H)-pyrimidinedione-N6 -oxide [FCE 24778]",> 800,0.402 (0.297-0.511) mg.kg^-1,,
"C[C@H](CS)C(=O)N1CCC[C@H]1C(=O)O [Captopril, captopril, reference compound]",,,> 800,13.7
